By IC50 is commonly meant the concentration that gives 50% inhibition.

Each structure is given as a SMILES string. A value given as a limit tells only on which side of the number the result lay.

This is an account of results in patent publication US20240287124A1, “PRODRUGS OF 4'-SUBSTITUTED NUCLEOSIDE REVERSE TRANSCRIPTASE INHIBITORS” (Merck Sharp & Dohme LLC, priority 2023, published 2024).

For this assay, the system named is HIV-1 wild-type (R8) virus. Kind of assay: Viral KINetics in Green cells (VIKING) assay, HIV-1 replication in MT4-GFP reporter cells. As to conditions: Human immunodeficiency virus 1, 10% normal human serum, MT4-GFP cells, HIV-1 wild-type (R8); read-out: Viking (10% NHS), IC50. The assay is classed as cell-based. Here is the method:
Antiviral potency of the compounds was determined based on their ability to block HIV-1 replication in a GFP reporter cell line; this assay is referred to as Viral KINetics in Green cells or VIKING assay. HIV-1 replication was monitored using MT4-gag-GFP clone D3 (hereafter designate MT4-GFP) cells, which are MT4 cells modified to harbor a GFP reporter gene, the expression of which is dependent on the HIV-1 proteins tat and rev. (MT4 is a human T-cell line that is particularly sensitive to HIV-1 replication.) HIV-1 infection of MT4-GFP cells results in GFP expression approximately 24 h post-infection. MT4-GFP cells were maintained at 37° C./5% CO2/90% relative humidity in RPMI 1640 supplemented with 10% fetal bovine serum, 100 U/mL penicillin/streptomycin, and […] G418 to maintain the reporter gene. For infections, MT4-GFP cells were placed in the same medium lacking G418 and infected overnight with HIV-1 wild-type (R8) virus at an approximate multiplicity of infection of 0.01 in the same incubation conditions. Cells were then washed and resuspended in RPMI 1640 containing 10% normal human serum at 2×10^5 cells/mL. Compound plates were prepared by dispensing compounds dissolved in DMSO into wells of 384-well poly D lysine-coated plates (0.2 μl/well) using an ECHO acoustic dispenser. Each compound was tested in a 10-point serial 3-fold dilution (typical final concentrations: 4 μM-0.2 nM). Controls included no inhibitor (DMSO only) and a combination of three antiviral agents as a positive control (efavirenz, indinavir, and an integrase strand transfer inhibitor at final concentrations of 4 μM each). Infected cells were added (50 μL/well) to compound plates and were maintained at 37° C./5% CO2/90% relative humidity. Infected cells were quantified at two time points, approximately 48 h and 72 h post-infection, by counting the number of green cells in each well using an Acumen eX3 scanner. The increase in the number of green cells over ˜24 h period gives the reproductive ratio, R, which is calculated by dividing the number of green cells at 72 h over those at 48 h post-infection. The percent inhibition caused by a test compound is calculated using the following formula: […]
The dose-response curves of each test compound were plotted as % inhibition versus the compound concentration. IC50 values were determined by non-linear 4-parameter fitting of the dose-response curves.
Take `C#C[C@]1(CO)O[C@@H](n2ccc3c(N)nc(Cl)nc32)C[C@@H]1OCOC(=O)C(C)C` [Example 140]: the IC50 stood at 5 nM.
`C#C[C@]1(CO)O[C@@H](n2ccc3c(N)nc(Cl)nc32)C[C@@H]1OCOC(=O)OC(C)C` [Example 141]: the half-inhibitory concentration (IC50) amounted to 3.5 nM.
For the molecule `C#C[C@]1(COC(=O)Cc2ccc(Cl)cc2)O[C@@H](n2ccc3c(NC(=O)CCc4ccccc4)nc(Cl)nc32)C[C@@H]1O` [Example 147], the IC50 was 55 nM.
As to `C#C[C@]1(CO)O[C@@H](n2ccc3c(NC(=O)OCCC45CC6CC(CC(C6)C4)C5)nc(Cl)nc32)C[C@@H]1O` [Example 148], the IC50 was determined as 339 nM.
Regarding `C#C[C@]1(CO)O[C@@H](n2ccc3c(NC(=O)OCCc4ccccc4)nc(Cl)nc32)C[C@@H]1O` [Example 149], the concentration for half-maximal inhibition (IC50) is 429 nM.
For `C#C[C@]1(CO)O[C@@H](n2ccc3c(NC(=O)OCC4CCCCC4)nc(Cl)nc32)C[C@@H]1O` [Example 150] the value was 740 nM; for `C#C[C@]1(CO)O[C@@H](n2ccc3c(NC(=O)OCCCCC[C@@H]4SC[C@@H]5NC(=O)N[C@@H]54)nc(Cl)nc32)C[C@@H]1O` [Example 151], 17 nM; for `C#C[C@]1(CO)O[C@@H](n2ccc3c(N)nc(Cl)nc32)C[C@@H]1OC(=O)OCC` [Example 155], 29 nM.
For the molecule `C#C[C@]1(CO)O[C@@H](n2ccc3c(N)nc(Cl)nc32)C[C@@H]1OC(=O)OC` [Example 157], the IC50 was found to be 20 nM.
With `C#C[C@]1(CO)O[C@@H](n2ccc3c(N)nc(Cl)nc32)C[C@@H]1OC(=O)OCc1ccn(C)c(=O)c1` [Example 158], the half-inhibitory concentration (IC50) was 11 nM.
Consider `C#C[C@]1(CO)O[C@@H](n2ccc3c(N)nc(Cl)nc32)C[C@@H]1OC(=O)OCc1cc[nH]c(=O)c1` [Example 159], for which the 50% inhibitory concentration (IC50) is 14 nM.
With `C#C[C@]1(COC(=O)OCc2ccn(C)c(=O)c2)O[C@@H](n2ccc3c(N)nc(Cl)nc32)C[C@@H]1OC(=O)OCc1ccccc1` [Example 162], the half-maximal inhibitory concentration (IC50) stood at 8.9 nM.
As for `C#C[C@]1(COC(=O)OCc2cccnc2)O[C@@H](n2ccc3c(N)nc(Cl)nc32)C[C@@H]1OC(=O)OCc1cccnc1` [Example 164], the half-maximal inhibitory concentration (IC50) came out at 13 nM.
`C#C[C@]1(COC(=O)OCc2cccnc2)O[C@@H](n2ccc3c(N)nc(Cl)nc32)C[C@@H]1O` [Example 165]: the IC50 was determined as 4.9 nM.
Take `C#C[C@]1(CO)O[C@@H](n2ccc3c(N)nc(Cl)nc32)C[C@@H]1OC(=O)OCc1cccnc1` [Example 166]: the IC50 was 6.7 nM.
Regarding `C#C[C@]1(COC(=O)OCC23CC(C2)C3)O[C@@H](n2ccc3c(N)nc(Cl)nc32)C[C@@H]1OC(=O)OCC12CC(C1)C2` [Example 167], the IC50 worked out at 7.2 nM.
On to `C#C[C@]1(COC(=O)OCC23CC(C2)C3)O[C@@H](n2ccc3c(N)nc(Cl)nc32)C[C@@H]1O` [Example 168], for which the half-maximal inhibitory concentration (IC50) was determined as 3.9 nM.
For `C#C[C@]1(COC(=O)OCCC23CC(C2)C3)O[C@@H](n2ccc3c(N)nc(Cl)nc32)C[C@@H]1OC(=O)OCCC12CC(C1)C2` [Example 169], the IC50 was found to be 13 nM.
For `C#C[C@]1(COC(=O)OCCC23CC(C2)C3)O[C@@H](n2ccc3c(N)nc(Cl)nc32)C[C@@H]1O` [Example 170] the value was 4.3 nM; for `C#C[C@]1(COC(=O)OCc2cccnc2)O[C@@H](n2ccc3c(N)nc(Cl)nc32)C[C@@H]1OC(=O)OCC` [Example 172], 25 nM; for `C#C[C@]1(COC(=O)OCC23CC(C2)C3)O[C@@H](n2ccc3c(N)nc(Cl)nc32)C[C@@H]1OC(=O)OCCC12CC3CC(CC(C3)C1)C2` [Example 175], 34 nM.
On to `C#C[C@]1(COC(=O)OCCCCC[C@@H]2SC[C@@H]3NC(=O)N[C@@H]32)O[C@@H](n2ccc3c(N)nc(Cl)nc32)C[C@@H]1OC(=O)OCCC12CC3CC(CC(C3)C1)C2` [Example 176], for which the IC50 came out at 127 nM.
As for `C#C[C@]1(COC(=O)CC(C)(C)c2c(C)cc(C)cc2OC(C)=O)O[C@@H](n2ccc3c(N)nc(Cl)nc32)C[C@@H]1O` [Example 183], the half-inhibitory concentration (IC50) is 2.7 nM.
Turning to `C#C[C@]1(COC(=O)CCCC)O[C@@H](n2ccc3c(N)nc(Cl)nc32)C[C@@H]1OC(C)=O` [Example 186], the concentration for half-maximal inhibition (IC50) was found to be 25 nM.
With `C#C[C@]1(COC(=O)CCCC)O[C@@H](n2ccc3c(N)nc(Cl)nc32)C[C@@H]1OC(=O)CC` [Example 187], the IC50 came out at 27 nM.
Take `C#C[C@]1(COC(=O)CCCCC)O[C@@H](n2ccc3c(N)nc(Cl)nc32)C[C@@H]1OC(=O)CCCC[C@@H]1SC[C@@H]2NC(=O)N[C@@H]21` [Example 191]: the IC50 worked out at 20 nM.
In the case of `C#C[C@]1(COC(=O)CCCCC)O[C@@H](n2ccc3c(N)nc(Cl)nc32)C[C@@H]1OC(=O)OCc1cccnc1` [Example 192], the IC50 was 6.5 nM.
For `C#C[C@]1(COC(=O)OCc2ccccc2)O[C@@H](n2ccc3c(N)nc(Cl)nc32)C[C@@H]1OC(=O)CCCC[C@@H]1SC[C@@H]2NC(=O)N[C@@H]21` [Example 195], the IC50 was 40 nM.
Regarding `C#C[C@]1(COC(=O)CCCC[C@@H]2SC[C@@H]3NC(=O)N[C@@H]32)O[C@@H](n2ccc3c(N)nc(Cl)nc32)C[C@@H]1OC(=O)OCC` [Example 196], the IC50 came out at 27 nM.
For `C#C[C@]1(CO)O[C@@H](n2ccc3c(NC(=O)CCCc4ccccc4)nc(Cl)nc32)C[C@@H]1O` [Example 198] the value was 63 nM; for `C#C[C@]1(CO)O[C@@H](n2ccc3c(N)nc(Cl)nc32)C[C@@H]1OC(=O)OCc1ccc[nH]c1=O` [Example 201], 2.6 nM.
In the case of `C#C[C@]1(COC(=O)OCc2ccccc2)O[C@@H](n2ccc3c(NC(=O)CCc4ccccc4)nc(Cl)nc32)C[C@@H]1O` [Example 202], the IC50 is 146 nM.
The same measure for `C#C[C@]1(COC(=O)OCc2ccccc2)O[C@@H](n2ccc3c(NC(=O)CCc4ccccc4)nc(Cl)nc32)C[C@@H]1OC(=O)OCc1ccccc1` [Example 203]: 47 nM; for `C#C[C@]1(COC(=O)OCCCCC[C@@H]2SC[C@@H]3NC(=O)N[C@@H]32)O[C@@H](n2ccc3c(NC(=O)CCc4ccccc4)nc(Cl)nc32)C[C@@H]1O` [Example 204]: 123 nM.
As to `C#C[C@]1(COC(=O)OCc2ccc[nH]c2=O)O[C@@H](n2ccc3c(N)nc(Cl)nc32)C[C@@H]1OC(=O)OCc1ccc[nH]c1=O` [Example 205], the IC50 is 4 nM.
For `C#C[C@]1(COC(=O)OCc2cccn(C)c2=O)O[C@@H](n2ccc3c(N)nc(Cl)nc32)C[C@@H]1OC(=O)OCc1cccn(C)c1=O` [Example 206], the IC50 worked out at 3.4 nM.
As to `C#C[C@]1(COC(=O)OCc2cccn(C)c2=O)O[C@@H](n2ccc3c(N)nc(Cl)nc32)C[C@@H]1O` [Example 208], the IC50 was 4.4 nM.
In the case of `C#C[C@]1(COC(=O)OCc2ccc[nH]c2=O)O[C@@H](n2ccc3c(N)nc(Cl)nc32)C[C@@H]1O` [Example 209], the IC50 is 3.9 nM.
For `C#C[C@]1(COC(=O)OCc2ccccc2)O[C@@H](n2ccc3c(N)nc(Cl)nc32)C[C@@H]1OC(=O)CCCCCCC` [Example 211] the value was 4 nM.
Consider `C#C[C@]1(COC(=O)OCc2ccccc2)O[C@@H](n2ccc3c(N)nc(Cl)nc32)C[C@@H]1OC(=O)OCCC12CC3CC(CC(C3)C1)C2` [Example 215], for which the half-inhibitory concentration (IC50) was determined as 44 nM.
With `C#C[C@]1(CO)O[C@@H](n2ccc3c(N(C(=O)CCC45CC6CC(CC(C6)C4)C5)C(=O)CCC45CC6CC(CC(C6)C4)C5)nc(Cl)nc32)C[C@@H]1O` [Example 217], the IC50 was above 4030 nM.
